# Values joined by “and” are separate entries in the source; they are usually repeats but may differ in a detail not shown here. Equal values may be shown once.
# How the values were obtained:
# MMP-9 = details: cited from earlier work
# MMP-2 = details: cited from earlier work
# MMP-8 = details: cited from earlier work
# soluble MMP-9 = details: cited from earlier work
# [1] = system: demineralized dentin collagen; details: cited from earlier work
# [2] = system: total endogenous MMP activity of dentin (matrix-bound MMPs); type: biochemical, human; details: 1.0% w/v aqueous BAC applied for 60 s; relative to untreated control with 0% inhibition; mean (SD), n = 10
# MMP = details: cited from earlier work
compound,measurement,setting,value
"[H]/N=C(\N/C(=N/[H])NCCCCCCNC(=N)NC(=N)Nc1ccc(Cl)cc1)Nc1ccc(Cl)cc1 [CHX, Chlorhexidine]",Inhibition of MMP-9,MMP-9,potent inhibitor
same,Inhibition of MMP-2,MMP-2,potent inhibitor
same,Inhibition of MMP-8,MMP-8,potent inhibitor
"C=C(C)C(=O)OCCCCCCCCCCCC[n+]1ccccc1.[Br-] [MDPB, 12-methacryloyloxydodecylpyridinium bromide]",Inhibition of soluble MMP-9,soluble MMP-9,effectively inhibited soluble MMP-9 as or more effectively as Galardin
same,Inhibition of degradation of demineralized dentin collagen,[1],almost completely inhibited
Benzalkonium chloride [BAC],% MMP inhibition (total MMP activity),[2],54% and 54.2 (9.0) ^C %
same,MMP inhibition,MMP; 1.0% BAC,55–66%
same,MMP inhibition relative to 1.0% BAC,MMP; 2.0% BAC,did not yield additional MMP inhibition

# Source: publication PMC4356641 (European journal of oral sciences, 2015)
